In brackets after ≈: the same amount, converted by molar mass.
What was measured:
[1] = system: Adriamycin-resistant mouse leukemic cells P388/ADR; test: In vitro tumor cell proliferation inhibiting test (Adriamycin-resistant mouse leukemic cells P388/ADR); assay type: cell-based; conditions: 48 h, 2×10^5, RPMI 1640 with 10% bovine fetal serum, 2 days, read-out: 50% proliferation inhibitory concentration: IC50
Method: 2×10^5 Adriamycin-resistant mouse leukemic cells P388/ADR are suspended in a RPMI 1640 culture medium containing 10% of a bovine fetal serum, and cultured for 2 days in the presence of a test compound (the test compound is dissolved in dimethyl sulfoxide such that the concentration becomes 1 mg/ml, and this is diluted with a phosphate buffer solution). An influence on cell proliferation is investigated, and 50% proliferation inhibitory concentration: IC50 value (μg/ml) is determined.

Sarcoma 180 solid tumor = test: In vivo test on Sarcoma 180 solid tumor transplanted mice; parameters: species or system mouse (ddY female); conditions: for Average tumor weight (mean ± SD, g): once a day over 10 days from 6th day, tumor taken out 30 days after transplantation; for Percent inhibition: tumor weight, 30 days after transplantation
Method: 2×10^6 Sarcoma 180 cells are transplanted subcutaneously in the back of each of 6-week old ddY female mice. Over 10 days from the 6th day after the tumor transplantation in groups each consisting of 6 mices, the test compound (which is dissolved in propylene glycol and diluted with a phosphate buffer solution such that the final concentration of propylene glycol becomes 20% or less) is continuously administered in the abdominal cavity once a day. Thirty days after the tumor transplantation, the tumor is taken out. Its weight is measured, and an average tumor weight and percent inhibition* are measured. [formula]

Acute toxicity test = test: Acute toxicity test; parameters: species or system mouse (ddY male); conditions: mouse, in vivo, mortality for 1 week, Litchfield-Wilcoxon method
Method: The test compound is administered to each 5-week old ddY male mouse, and mortality is observed for 1 week. A 50% lethal dose (LD50) is calculated from the number of mice died in each group by a Litchfield-Wilcoxon method. The test compound (compound (a)) is suspended in 10% propylene glycol. Ten dilution gradients are prepared from the maximum concentration 80 mg/kg at a ratio of 1.2, and the test is carried out.

[2] = system: Sarcoma 180 ascites tumor; test: In vivo test on Sarcoma 180 ascites tumor transplanted mice; parameters: species or system mouse (ddY male); conditions: once a day over 7 days; for Average number of survival days (mean ± SD): 6 mice per group; for Cured example: groups of 6 mice
Method: 1×10^6 Sarcoma 180 cells are transplanted in an abdominal cavity of each of 6-week old ddY male mice. Over 7 days after the first day of transplantation of tumor cells in groups each consisting of 6 mice, the test compound (which is dissolved in propyplene glycol and diluted with a phosphate buffer solution such that the final concentration of propylene glycol becomes 20% or less) is administered in the abdominal cavity once a day, and an average number of survival days and percent prolongation* are measured. [formula]

SMILES: COc1cc2c(c(OC)c1OC)-c1ccc(OC)c(=O)cc1C(NC(=O)[C@H]1O[C@H](O)[C@H](O)[C@@H](O)[C@@H]1O)CC2 (stereo partly shown) [Compound 5, N-(5,6,7,9-tetrahydro-1,2,3,10-tetramethoxy-9-oxobenzo[a]heptalen-7-yl)glucuroneamide]
- IC50 [1]: 0.037 µg/mL (≈ 0.0693 µM)

SMILES: COc1cc2c(c(OC)c1OC)-c1ccc(OC)c(=O)cc1C(NC(=O)[C@@H]1COC(C)(C)O1)CC2 (stereo partly shown) [Compound 1a, Deacetylcolchicine-glyceric Acid Acetonideamide]
- Average tumor weight (mean ± SD, g) (Sarcoma 180 solid tumor; 0.625 μg/kg i.p.): 0.71 ± 0.38 g
- Percent inhibition (Sarcoma 180 solid tumor; 0.625 μg/kg i.p.): 49.6%
- Average tumor weight (mean ± SD, g) (Sarcoma 180 solid tumor; 1.25 μg/kg i.p.): 0.88 ± 0.78 g
- Percent inhibition (Sarcoma 180 solid tumor; 1.25 μg/kg i.p.): 47.6%
- Average tumor weight (mean ± SD, g) (Sarcoma 180 solid tumor; 2.5 μg/kg i.p.): 0.63 ± 0.51 g
- Percent inhibition (Sarcoma 180 solid tumor; 2.5 μg/kg i.p.): 55.3%
- Average tumor weight (mean ± SD, g) (Sarcoma 180 solid tumor; 5.0 μg/kg i.p.): 0.60 ± 0.52 g
- Percent inhibition (Sarcoma 180 solid tumor; 5.0 μg/kg i.p.): 57.4%
- LD50 at 168 h (Acute toxicity test; ip, intraperitoneal): 42 mg/kg
- LD50 at 168 h (Acute toxicity test; intravenous): 38 mg/kg
- IC50 [1]: 0.036 µg/mL (≈ 0.0741 µM)
- Percent prolongation ([2]; 0.31 mg/kg i.p.): 188%
- Average number of survival days (mean ± SD) ([2]; 0.31 mg/kg i.p.): 36.0 ± 8.0 days
- Percent prolongation ([2]; 0.63 mg/kg i.p.): 281%
- Average number of survival days (mean ± SD) ([2]; 0.63 mg/kg i.p.): 47.7 ± 11.1 days
- Cured example ([2]; 0.63 mg/kg i.p.): 1
- Percent prolongation ([2]; 1.25 mg/kg i.p.): 277%
- Average number of survival days (mean ± SD) ([2]; 1.25 mg/kg i.p.): 47.2 ± 11.5 days
- Cured example ([2]; 1.25 mg/kg i.p.): 2
- Percent prolongation ([2]; 2.5 mg/kg i.p.): 333%
- Average number of survival days (mean ± SD) ([2]; 2.5 mg/kg i.p.): 54.2 ± 11.6 days
- Cured example ([2]; 2.5 mg/kg i.p.): 4

SMILES: COc1cc2c(c(OC)c1OC)-c1ccc(OC)c(=O)cc1C(NC(=O)[C@H]1O[C@H](OC(C)=O)[C@H](O)[C@@H](O)[C@@H]1OC(C)=O)CC2 (stereo partly shown) [Compound 4, Deacetylcolchicine-glucuronic acid diacetateamide]
- IC50 [1]: 0.034 µg/mL

SMILES: COc1cc2c(c(OC)c1OC)-c1ccc(OC)c(=O)cc1C(NC(=O)[C@H]1COC(C)(C)O1)CC2 (stereo partly shown) [Compound 1b, Deacetylcolchicine-glyceric Acid Acetonideamide]
- IC50 [1]: 0.066 µg/mL (≈ 0.136 µM)
- Percent prolongation ([2]; 1.25 mg/kg i.p.): 240%
- Average number of survival days (mean ± SD) ([2]; 1.25 mg/kg i.p.): 42.5 ± 15.4 days
- Cured example ([2]; 1.25 mg/kg i.p.): 1
- Percent prolongation ([2]; 2.5 mg/kg i.p.): 356%
- Average number of survival days (mean ± SD) ([2]; 2.5 mg/kg i.p.): 57.0 ± 7.3 days
- Cured example ([2]; 2.5 mg/kg i.p.): 5
- Percent prolongation ([2]; 5 mg/kg i.p.): 356%
- Average number of survival days (mean ± SD) ([2]; 5 mg/kg i.p.): 57.0 ± 5.3 days
- Cured example ([2]; 5 mg/kg i.p.): 4
